# Counter-ions that a name gives are not always drawn.
# Target: human GPR40 (Homo sapiens, UniProt O14842)
# Experiment: FDSS-based intracellular calcium assay (Human GRP40 in vitro assay)
# Assay type: cell-based
# Parameters: 3xFLAG; expressed in transfected cells
# Conditions: cells expressing GPR40, intracellular Ca2+ response, FDSS reader; read-out: hGPR40 EC50
# Method: To conduct the fluorescent imaging plate reader (FLIPR)-based calcium flux assay to measure intracellular Ca^2+ response, cells expressing GPR40 are plated on 384 well plates (BD BIOCOAT® #356697) at a density of 20,000 cells/20 μL medium per well in phenol red and serum-free DMEM (GIBCO® #21063-029) and incubated overnight. Using BD kit #s 80500-310 or -301, the cells are incubated with 20 μL per well of Hank's buffered salt solution with 1.7 mM probenecid and Fluo-3 at 37° C. for 30 min. Compounds are dissolved in DMSO and diluted to desired concentrations with assay buffer and added to the cells as 3× solution (20 μL per well). Run fluorescence/luminescence reader FDSS (Hamamatsu) to read intracellular Ca^2+ response.
# Chain of human GPR40 (O14842 whole entry): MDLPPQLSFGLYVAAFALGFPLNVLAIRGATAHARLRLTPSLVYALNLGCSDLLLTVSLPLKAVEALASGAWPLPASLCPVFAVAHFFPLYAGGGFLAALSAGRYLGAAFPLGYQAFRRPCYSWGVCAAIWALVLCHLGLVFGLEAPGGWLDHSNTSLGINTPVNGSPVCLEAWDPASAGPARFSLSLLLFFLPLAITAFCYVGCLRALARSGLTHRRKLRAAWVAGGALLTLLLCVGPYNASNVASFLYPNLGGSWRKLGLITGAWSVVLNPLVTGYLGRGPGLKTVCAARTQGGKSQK
row,Structure (SMILES),EC50
1,"COc1ccc(F)c(N2CCC(Oc3ccc(N4C[C@H](OC)C[C@@H]4CC(=O)O)cc3)CC2)c1Cc1ccccc1 [Example 32, 2-((2R,4R)-1-(4-((1-(2-Benzyl-6-fluoro-3-methoxyphenyl)piperidin-4-yl)oxy)phenyl)-4-methoxypyrrolidin-2-yl)acetic acid, TFA]",1700 nM
2,"COc1cc(N2CCC(Oc3ccc(N4C[C@H](OC)C[C@@H]4CC(=O)O)cc3)CC2)c2nccn2n1 [Example 86, 2-((2R,4R)-4-Methoxy-1-(4-((1-(6-methoxyimidazo[1,2-b]pyridazin-8-yl)piperidin-4-yl)oxy)phenyl)pyrrolidin-2-yl)acetic acid, TFA]",4700 nM
3,"COc1cc(N2CCC(Oc3ccc(N4C[C@H](OC)C[C@@H]4CC(=O)O)cc3)C(C)C2)c(F)cn1 (single isomer, unassigned) [Example 83, Isomer 1]",4800 nM
4,"CCOc1ccc(F)c(N2CCC(Oc3ccc(N4C[C@H](C(F)(F)F)C[C@@H]4CC(=O)O)cc3)C(CC)C2)c1 (single isomer, unassigned) [Example 33, Isomer 2, HCl]",430 nM
5,"CO[C@@H]1C[C@H](CC(=O)O)N(c2ccc(OC3CCN(c4cc(OC(F)(F)F)ccc4F)CC3)cc2)C1 [Example 63, 2-((2R,4R)-1-(4-(1-(2-Fluoro-5-(trifluoromethoxy)phenyl)piperidin-4-yloxy)phenyl)-4-methoxypyrrolidin-2-yl)acetic acid, TFA]",2600 nM
6,"CCOc1ccc(F)c(N2CCC(Oc3ccc(N4C[C@H](C(F)(F)F)C[C@@H]4CC(=O)O)cc3)C(CC)C2)c1 (single isomer, unassigned) [Example 33, Isomer 1, HCl]",1900 nM
7,"CCOc1ccc(F)c(N2CCC(Oc3ccc(N4C[C@H](Oc5ncccn5)C[C@@H]4CC(=O)O)cc3)CC2)c1 [Example 78, 2-((2R,4R)-1-(4-(1-(5-Ethoxy-2-fluorophenyl)piperidin-4-yloxy)phenyl)-4-(pyrimidin-2-yloxy)pyrrolidin-2-yl)acetic acid, TFA]",1600 nM
8,"COc1cc(N2CCC(Oc3ccc(N4C[C@H](C(F)(F)F)C[C@@H]4CC(=O)O)cc3)C(C)C2)c(Cl)cn1 (single isomer, unassigned) [Example 27, Isomer 2, HCl]",130 nM

# Other lines, results leading:
row,EC50,Structure (SMILES)
1,2300 nM,"COc1cc(N2CCC(Oc3ccc(N4C[C@H](OC)C[C@@H]4CC(=O)O)cc3)C(CC#N)C2)c(Cl)cn1 (stereo partly drawn) [Example 93, 2-((2R,4R)-1-(4-(((3,4-trans)-1-(5-Chloro-2-methoxypyridin-4-yl)-3-(cyanomethyl)piperidin-4-yl)oxy)phenyl)-4-methoxypyrrolidin-2-yl)acetic acid, TFA]"
2,410 nM,"COc1cc(N2CCC(Oc3ccc(N4C[C@H](OC)CC4CC(=O)O)c(F)c3F)C(C)C2)c(Cl)cn1 (single isomer, unassigned) [Example 141, Isomer 1]"
3,110 nM,"COc1cc(N2CCC(Oc3ccc(N4C[C@H](OC)[C@@H](C)[C@@H]4CC(=O)O)cn3)C(C)C2)c(C2CCCC2(C)C)cn1 (single isomer, unassigned) [Example 150, Isomer 2, HCl]"
4,580 nM,"COc1cc(N2CCC(Oc3ccc(N4C[C@H](C(F)(F)F)C[C@@H]4CC(=O)O)cc3F)C(C)C2)c(Cl)cn1 (stereo partly drawn) [Example 134, 2-((2R,4R)-1-(4-(((3,4-trans)-1-(5-Chloro-2-methoxypyridin-4-yl)-3-methylpiperidin-4-yl)oxy)-3-fluorophenyl)-4-(trifluoromethyl)pyrrolidin-2-yl)acetic acid]"
5,230 nM,"COc1cc(N2CCC(Oc3ccc(N4CC(C)(C)C[C@@H]4CC(=O)O)cn3)C(C)C2)c(Cl)cn1 (stereo partly drawn) [Example 109, 2-((R)-1-(6-(((3,4-trans)-1-(5-Chloro-2-methoxypyridin-4-yl)-3-methylpiperidin-4-yl)oxy)pyridin-3-yl)-4,4-dimethylpyrrolidin-2-yl)acetic acid, TFA]"
